The subject of series [1] is Staphylococcus aureus No. 50774. Briefly: In vitro antibacterial activity (MIC), agar dilution method. The series is classed as cell-based. The protocol:
(§1) *^3 In vitro antibacterial activity
(§2) The minimum inhibitory concentrations (MIC:
(§3) μg/ml) shown in Table 1 were determined according
(§4) to the agar dilution method recommended by Japan
(§5) Society of Chemotherpy (1980)
In general terms: Agar dilution tests growth on a series of plates holding different concentrations.

Series [2] deals with Escherichia coli P-5101. The description is as above. Type of series: cell-based. As to conditions: P5101. How it is done: as §1, §2, §3, §4, §5
Series [3] deals with Pseudomonas aeruginosa No. 12. The series is described as above. Type of series: cell-based. How it is done:
as §1, §2, §3, §4, §5

Series [4] deals with Staphylococcus aureus No. 50774. Briefly: In vivo efficacy against the systemic infections in mice (Staphylococcus aureus). As to conditions: 336 h; Staphylococcus aureus No. 50774, intravenous infection; oral, twice, about 5 minutes and 6 hours after infection; observed 14 days. Also noted: species or system mice (male ddY). How it is done:
(§6) Compounds 1, A and NA were each suspended in a 0.2%
(§7) aqueous solution of sodium carboxymethylcellulose.
(§8) Each of the solutions was orally administered to
(§9) mice infected with each of the test organisms under
(§10) the conditions described below, and the median
(§11) effective dose (ED50) was calculated in accordance
(§12) with the Behrens-Kaerber method [Arch. Exp. Path.
(§13) Experimental conditions:
(§14) Mice: Male mice (ddY) weighing about 20 g
Staphylococcus aureus No. 50774
Intravenous infection with about 5 × 10^8
cells per mouse suspended in saline
Twice, about 5 minutes and 6 hours after
Staphylococcus aureus No. 50774-for 14 days

Series [5] in a line: Acute oral toxicity in mice. As to conditions: mouse, in vivo, female mice (ddY), deaths counted after 7 days. How it is done:
*^5 Acute oral toxicity in mice
A suspension containing compound 1 in various
concentrations was orally given to female mice
(ddY) at a volume of 0.1 ml per 10 g of body weight.
The number of dead mice was counted after 7 days,
and the value of median lethal dose (LD50) was
calculated in accordance with the Behrens-Kaerber

Series [6] concerns Escherichia coli P-5101. Briefly: In vivo efficacy against the systemic infections in mice (Escherichia coli). Also noted: species or system mice (male ddY). As to conditions: P5101; Escherichia coli P-5101, intraperitoneal infection; oral, twice, about 5 minutes and 6 hours after infection. The protocol: as §6, §7, §8, §9, §10, §11, §12, §13, §14
Escherichia coli P-5101
Intraperitoneal infection with about 9 × 10^6
(§15) cells per mouse suspended in trypto-soy
(§16) Twice, about 5 minutes and 6 hours after […]

Series [7] relates to Pseudomonas aeruginosa No. 12. Briefly: In vivo efficacy against the systemic infections in mice (Pseudomonas aeruginosa). Also noted: species or system mice (male ddY). Particulars: Pseudomonas aeruginosa No. 12, intraperitoneal infection; oral, twice, about 5 minutes and 6 hours after infection. The protocol: as §6, §7, §8, §9, §10, §11, §12, §13, §14
Pseudomonas aeruginosa No. 12
Intraperitoneal infection with about 5 × 10^3
as §15, §16

Values after ≈ are worked out from the molar mass of the structure shown. Some results are limits rather than exact numbers.

In US4497816A, “7-(4-Pyridyl)-1,8-naphthyridine derivatives and their antibacterial compositions” (Dainippon Pharmaceutical Co., Ltd., priority 1982, dated 1985) one finds MIC, ED50 and LD50 data, which are given here for three molecules.

As usually defined, the MIC is the lowest concentration found to suppress growth. A high value points to a need for much substance. As usually defined, the ED50 is the dose that gives a 50% effect, or the effect in half of the subjects. In general, LD50 refers to the dose expected to kill half of the subjects tested. A low value points to a more toxic substance. For `CCn1cc(C(=O)O)c(=O)c2cc(F)c(-c3ccncc3)nc21` [Compound 1, 1-Ethyl-6-fluoro-1,4-dihydro-4-oxo-7-(4-pyridyl)-1,8-naphthyridine-3-carboxylic acid], the minimum inhibitory concentration (MIC) came out at 0.2 µg/mL (≈ 0.638 µM) in series [1], 0.2 µg/mL (≈ 0.638 µM) in series [2] and 3.13 µg/mL (≈ 9.99 µM) in series [3]. Besides, the median effective dose (ED50) in series [4] came to 2.84 mg/kg; in series [6], 3.1 mg/kg; in series [7], 12.2 mg/kg. In series [5], the LD50 at 168 h was greater than 2000 mg/kg.
As to `CCn1cc(C(=O)O)c(=O)c2ccc(-c3ccncc3)nc21` [Compound A, 1-ethyl-1,4-dihydro-4-oxo-7-(4-pyridyl)-1,8-naphthyridine-3-carboxylic acid], the MIC in series [1] stood at 1.56 µg/mL (≈ 5.28 µM); in series [2], 0.78 µg/mL (≈ 2.64 µM); in series [3] it was 12.5 µg/mL (≈ 42.3 µM). The ED50 in series [4] is 23.7 mg/kg; in series [6] it was 21 mg/kg; in series [7] it was greater than 100 mg/kg.
Take `CCn1cc(C(=O)O)c(=O)c2ccc(C)nc21` [NA, 1-ethyl-1,4-dihydro-7-methyl-4-oxo-1,8-naphthyridine-3-carboxylic acid]: the MIC was determined as 50 µg/mL (≈ 215 µM) in series [1], 3.13 µg/mL (≈ 13.5 µM) in series [2] and 200 µg/mL (≈ 861 µM) in series [3]. Besides, the ED50 in series [4] is 767 mg/kg; in series [7], 267 mg/kg.
